Where two headings read alike, the source gives them in different places.
Columns and labels:
HCT-116 = assay: Calcein AM viability assay, HCT-116; type: cell-based, human; conditions: 72-hours incubation
Method: (§1) The potency of Cdk inhibitors, as measured by loss of cellular viability, was determined with the Calcein AM assay (Molecular Probes). Calcein AM is a substrate of intracellular esterases, which is cleaved only in viable cells to generate a fluorescent product that can be quantified with a fluorescent plate reader. The fluorescent signal is proportional to the number of viable cells, and thus loss of signal in response to the exposure of cells to Cdk inhibitors correlates with a loss of viability. This assay distinguishes cell cycle arrest from loss of viability and is thus well suited for the evaluation of Cdk inhibitors.
(§2) Cellular IC50's were determined in the human colorectal carcinoma cell line, HCT-116, and the normal human fibroblast, IMR90. Protein adjusted IC50's were also determined in HCT-116. Results are presented in Table 3 below (HCT-116 (viability/protein adjusted) and IMR-90).
(§3) HCT-116 or IMR90 cells were recovered from sub-confluent plates by trypsinization and 1,000 or 4,000 cells, respectively, were plated in 24-well dishes and incubated overnight at 37° C., 5% CO2. HCT-116 cells were cultured in RPMI-1640, 10% FCS, and IMR90 cells were cultured in Minimum Essential Medium-alpha, 10% FCS. After overnight incubation to allow.adlierence, the media was aspirated from each well and replaced with media containing a test compound at a concentration from 0 to 250 nM, spanning a total of 7 doses. The plates were returned to the incubator and cultured for an additional 3 days. […] After 72-hours incubation with the test compound, the cells were washed twice with 1×PBS, talking special care to remove all residual buffer.
(§4) A 5 μM Calcein AM. solution was prepared by dissolving a 50 μg aliquot of Calcein (Molecular Probes catalog # C3100) in 50 μl DMSO. After the Calcein had completely dissolved (10 minutes at room temperature), it was diluted into 10 ml PBS. Calcein/PBS (0.5 ml) was added to each well. The plates were incubated for 75 minutes at 37° C. (protected from light) and the fluorescent signal was read on a fluorescent plate reader (excitation 485/20 and emission 530/25).

ADR-res = assay: NCI panel (SRB assay), ADR-res cell line; type: cell-based, human; conditions: 48 hours incubation with compound, unit not given
From the text: (§5) The evaluation of compounds at the National Cancer Institute in their panel of 60 cell lines provides a wealth of information regarding efficacy in a wide range of tumor types and genetic backgrounds. Included within this panel are cell lines derived from leukemia, melanoma and cancers of the lung, colon, brain, ovary, breast, prostate and kidney. Use of this panel provides a measure of the efficacy of compounds in cells with alterations in many genes that are associated with neoplastic transformation including p53 and Her2/Neu as well as those involved in metabolism and those which confer multi-drug resistance. The data generated in these cell lines with the protocol described below can be used to evaluate the activity of compounds.
(§6) Cells were grown in RPMI-1640 10% FCS and plated in 96 well micro-titer plates at densities ranging from 5,000 to 40,000 cells/well. The plates were incubated for 24 hours at 37° C., 5% CO2 for 24 hours. Media containing twice the desired final concentration of the compound (5 doses spanning 4 logs) was prepared and 100 μl was added to each well containing 100 μl media plus cells to yield the desired final concentration. The plates were then incubated for an additional 48 hours.
(§7) The effect of the compound on cellular viability was determined with the Sulforhodamine B (SRB) assay which measures total protein. Cells were fixed with cold TCA to a fmal concentration of 10% and incubated at 4° C. for 60 minutes. The supernatant was discarded and the plates were washed five times with water and air-dried. SRB solution at […] in 1% acetic acid was added to each well and the plates were incubated for 10 minutes at room temperature. The plates were washed five times with 1% acetic acid and air-dried. The bound stain was solubilized with 10 mM trizma base and the absorbance was read on a plate reader at […].

HCT-116 cells [1] = assay: Clonogenic survival assay with HCT-116 cells; type: cell-based; conditions: Homo sapiens
Method: This assay was used to determine the concentration of a compound that results irreversible loss of viability after a specified period of exposure.
Media (RPMI-1640, 10% FCS, pen/strep) was pre-warnied to 37° C. in a water bath. Cells were incubated and grown at 37° C., 5% CO2. Cells were recovered by trypsinization from sub-confluent plates and counted using a hemocytometer. 1×10^4 cells were plated in 25 mls of media in a 15 cm tissue culture dish. 14 plates were set up for each test compound, and were incubated overnight at 37° C. The compound was diluted into media at 7 concentrations and the media on the cells was replaced with that containing the test compound. Two plates were set up for each concentration of the compound to be tested, as well as two control plates without compound. […] Colonies were stained with crystal violet solution (0.4% crystal violet, 20 % ethanol) for 5 minutes, washed twice with distilled water, and counted.

[2] = system: NCI panel of 60 cell lines; assay: NCI panel of human tumor cell lines (SRB assay), MG-MID; type: cell-based; conditions: 48 hours incubation with compound
From the text: as §5, §6, §7

HCT-116 cells [3] = assay: BrdU incorporation into DNA (flow cytometry); type: cell-based, human; design: unit not given here; conditions: inhibition of BrdU incorporation, unit not given; for BrdU 72: analysis at 72 hours; for BrdU 24: analysis at 24 hours; for BrdU 48: analysis at 48 hours
Method: This method measured the percentage of cells that incorporated the nucleotide analog, BrdU, into newly synthesized DNA as cells progressed through the S phase of the cell cycle. The inhibition of BrdU incorporation was used as a measure of a Cdlc inhibitor's effect on S phase progression and DNA replication.
3 sets of HCT-116 cells (100,000 cells/set) were plated in T25 flasks and incubated with a test compound as above. Analysis was done at 24, 48, and 72 hours. BrdU was added to each T-25 flask from a stock of 10 mg/ml to a final concentration of 10 μM and the cells were incubated for an additional 16-18 hours at 37° C. The cells were then prepared for flow cytometric analysis according to manufacturer's protocol (BrdU Flow kit, BD-Pharmingen catalogue # 2354KK) as follows:
Cells were harvested (adherent and floating) from the T25 flasks directly into Falcon 12×75 flow cytometric tubes as above followed by fixation and permeabilization with the addition of 100 μl Cytofix/Cytoperm buffer (30 minutes, room temperature). The cells were then washed with 1 ml of Perm Wash buffer and the cell pellets were resuspended in 100 μl Cytoperm Plus buffer and incubated on ice for 10 minutes. The cells were then washed again with 1 ml of Perm Wash buffer and the fixation was repeated in 100 μl of Cytofix/Cyto Perm buffer for 10 minutes at room temperature. The cells were then washed with 1 ml of Perm Wash buffer. The cells were next treated for one hour at 37° C. with 100 μl DNase to expose incorporated BrdU followed by another wash step with 1 ml of Perm Wash buffer. […] Cells were protected from light and incubated at room temperature for 20-30 minutes. Following the incubation, the cells were washed with 1 ml of Perrn Wash buffer, resuspended in 300 μl of 2% FBS in PBS, and analyzed on the flow cytometer.

IMR90 = assay: Calcein AM viability assay, IMR90; type: cell-based; conditions: IMR-90, normal human fibroblast, 72-hours incubation
Method: as §1, §2, §3, §4

arrested IMR90 cells = assay: Arrested cell assay (serum starvation), IMR90; type: cell-based, human; design: unit not given here; conditions: serum-starved arrested cells; unit not given
Method: (§8) Cyclin-dependent kinase (Cdk) activity is required to promote the progression of cells through distinct phases of the cell division cycle. The proliferation of normal, non-transformed, cells in culture requires the presence of growth factors, the removal of which, through serum deprivation, leads to a loss of Cdlc activity and consequent exit from the cell cycle as cells enter the quiescent phase, Go.
IMR90 cells were plated in triplicate for each compound concentration to be tested in MEM-α media containing 10% fetal calf serum at a density of either 2,000 or 20,000 cells per well in 24-well dishes and incubated overnight at 37° C., 5% CO2. The media was removed from the 20,000 cell-per-well dish, cells were washed once with serum-free media, and serum-fiee media was placed on cells. The plates containing cells both in the presence and absence of serum were incubated for 3 additional days.
(§9) To ensure that the cells had indeed exited the cell cyde upon serum withdrawal, the percentage of BrdU positive cells, indicative of those progressing through S phase, was determined in each experiment. For the purpose of this experiment, cellular viability was evaluated simultaneously with the use of SNARF-1, a fluorescent substrate of intracellular esterases which are only active in viable cells. Together, the evaluation of BrdU incorporation and SNARF-1 cleavage by flow cytometry provided an assessment of the viability of arrested cells on a single cell basis. For this analysis, the cells were stained with SNARF-1 as follows and then prepared for determination of BrdU incorporation as described above.
(§10) HCT-116 and IMR90 cells were plated at the density described below in T25 flasks in serum-containing media (RPMI-1640 or MEM-a with 10% FCS, respectively). After 24 hours of growth, the media was removed and, after washing the cells, replaced with serum-free media. • HCT-116+FCS 5,000 cells • HCT-116−FCS 100,000 cells • IMR90+FCS 100,000 cells • IMR90−FCS 200,000 cells
(§11) The IMR90 cells were grown for an additional 3 days and the HCT-116 cells were grown for an additional 6 days before pulsing with BrdU. A 50 μg aliquot of SNARF-1 (Molecular Probes catalog #C1272) was dissolved in 50 μl DMSO at room temperature for 10 minutes and then diluted into 10 ml PBS. The SNARF-1 was further diluted 1:64,000 before 200 μl was added to each tube of cells which had been cultured in the presence or absence of serum and pulsed with BrdU for 20 hours. The cells were incubated at 37° C. for 30 minutes and then washed with 3 ml of PBS.
(§12) These cells were then fixed and prepared for the measurement of BrdU incorporation as described above. The percentage of viable (FL-2) and BrdU positive (FL-1) cells was determined on a FACScan flow cytometer.

arrested HCT-116 cells = assay: Arrested cell assay (serum starvation), HCT-116; type: cell-based, human; design: unit not given here; conditions: serum-starved arrested cells; unit not given
Method: as §8
HCT-116 cells were plated in triplicate for each compound concentration to be tested in RPMI 1640 media containing 10% fetal calf serum at a density of either 200 or 2,000 cells per well in 24 well dishes, and incubated overnight at 37° C., 5% CO2. The media from the plate containing 2,000 cells per well was removed, cells were washed once with serum free media and 1 ml of serum free media was placed on cells. Tle plates containing cells both in the presence and absence of serum were incubated for 6 additional days.
as §9, §10, §11, §12

[4] = Homo sapiens, RPMI-1640 10% FCS, read-out: HCT-116 IC50 viability
[5] = 24 h exposure, read-out: HCT-116 IC50 clonogenic 24 h
[6] = plus 1 mg/ml alpha acidic glycoprotein and 45 mg/ml human serum albumin, read-out: HCT-116 IC50 protein adjusted

For `CC(C)c1nn(-c2c(Cl)cc(Cl)cc2Cl)c2nc(Cc3ccc(OCCN4CCOCC4)cc3)[nH]c(=O)c12.Cl` [A], the IC50 (HCT-116; [4]) was less than 100 nM, the “NCI panel ADR-res” value (ADR-res) was less than 1 and the IC50 (HCT-116 cells [1]; 48 h exposure, read-out: HCT-116 IC50 clonogenic 48 h) was less than 100 nM. For the same molecule, the IC50 (HCT-116 cells [1]; 72 h exposure, read-out: HCT-116 IC50 clonogenic 72 h) was less than 100 nM, the “NCI panel MG-MID” value [2] was less than 0.1 µM and the “BrdU 72” value (HCT-116 cells [3]) was less than 0.1. It also gave an IC50 (IMR90) of less than 100 nM.

For `CN1CCN(NC(=O)Nc2cccc3c2C(=O)c2c-3n[nH]c2-c2ccc(OCCN3CC[C@H](O)C3)cc2)CC1.Cl.Cl.Cl` [O], the “Arrested cell IMR90” value (arrested IMR90 cells) was greater than 0.1, the “Arrested cell HCT” value (arrested HCT-116 cells) was less than 0.1 and the IC50 (HCT-116 cells [1]; [5]) was less than 10 nM. For the same molecule, the “BrdU 24” value (HCT-116 cells [3]) was less than 0.1, the “BrdU 48” value (HCT-116 cells [3]) was less than 1 and the “BrdU 72” value (HCT-116 cells [3]) was less than 1. For the same molecule, the IC50 (IMR90) was less than 100 nM.

Work on `CN1CCN(NC(=O)Nc2cccc3c2C(=O)c2c-3n[nH]c2-c2ccc(OCCN(CCO)CCO)cc2)CC1` [N] yielded an IC50 (HCT-116; [6]) of less than 1000 nM, an IC50 (HCT-116; [4]) of less than 1000 nM and an IC50 (IMR90) greater than 100 nM.

`CC(C)c1nn(-c2c(Cl)cc(Cl)cc2Cl)c2nc(Cc3ccc(NS(=O)(=O)CCCN4CCOCC4)cc3)[nH]c(=O)c12.Cl` [D] was tested, and the “Arrested cell IMR90” value (arrested IMR90 cells) was greater than 1.0, the “Arrested cell HCT” value (arrested HCT-116 cells) was less than 0.01 and the “BrdU 24” value (HCT-116 cells [3]) was less than 0.1. The “BrdU 48” value (HCT-116 cells [3]) was less than 0.1, the “BrdU 72” value (HCT-116 cells [3]) was less than 0.1 and the IC50 (IMR90) was less than 10 nM.

`CN1CCN(NC(=O)Nc2cccc3c2C(=O)c2c-3n[nH]c2-c2ccc(OCCN3CCC[C@H]3CO)cc2)CC1.Cl.Cl.Cl` [M] was tested, and the IC50 (HCT-116; [6]) was less than 1000 nM, the “Arrested cell IMR90” value (arrested IMR90 cells) was greater than 1.0 and the “Arrested cell HCT” value (arrested HCT-116 cells) was less than 0.1. The “BrdU 24” value (HCT-116 cells [3]) was less than 0.1, the “BrdU 48” value (HCT-116 cells [3]) was less than 0.1 and the “BrdU 72” value (HCT-116 cells [3]) was less than 0.1. For the same molecule, the IC50 (IMR90) was less than 100 nM.

In the case of `Cc1cc(OCCN2CCCC2)ccc1-c1[nH]nc2c1C(=O)c1c(NC(=O)NN3CCN(C)CC3)cccc1-2.Cl.Cl.Cl` [L], the IC50 (HCT-116; [6]) is reported as less than 1000 nM, the “NCI panel ADR-res” value (ADR-res) is reported as greater than 10 and the “NCI panel MG-MID” value [2] is reported as greater than 10 µM. The “BrdU 24” value (HCT-116 cells [3]) was less than 0.1, the “BrdU 48” value (HCT-116 cells [3]) was less than 0.1 and the “BrdU 72” value (HCT-116 cells [3]) was less than 0.1. It also gave an IC50 (IMR90) greater than 100 nM.

Molecule `Cc1cc(-c2[nH]nc3c2C(=O)c2c(NC(=O)NN4CCN(C)CC4)cccc2-3)ccc1OCCN1CCCC1` [Compound P] has an IC50 (HCT-116; [4]) of less than 10 nM, an IC50 (HCT-116 cells [1]; [5]) of less than 100 nM and an IC50 (IMR90) of less than 100 nM.

Source: patent US20050090471A1, “Inhibitors of cyclin-dependent kinases, compositions and uses related thereto” (GPC Biotech, Inc, priority 2001, published 2005)
